Test results published in ChEMBL document CHEMBL4483862, “Open-source discovery of chemical leads for next-generation chemoprotective antimalarials” (2018).

System: Plasmodium berghei
Assay: Luciferase/luciferin-expressing antifolate-resistant parasites were used to infect a culture of HepG2 cells that were pre-incubated with compounds. Infected hepatocytes emit light due to the luciferase reaction. Assay results are presented as the percent inhibition of light emission compared to control. […]
Assay type: functional
Conditions: sporozoite; for IC50: read-out: LUCIFERASE INFECTION ASSAY - IC50; for IC90: read-out: LUCIFERASE INFECTION ASSAY - IC90

Structure (SMILES) | IC50 [µM] | IC90 [µM]
O=C(CN1CCN(c2cccc(Cl)c2)CC1)Nc1nccs1 | > 9.8 | > 9.8
C=C(C)CC(NCc1ccco1)c1ccc(OC)cc1 (centres undefined) | 8.94 | > 12.2
CC1CCCC(C)N1C(=O)Nc1cccc(Cl)c1 (centres undefined) | > 12.4 | > 12.4
CC(C)Cc1nc(N2CCN(C(=O)c3ccco3)CC2)c(C#N)c2c1CCCC2 | 3.18 | 3.93
Cc1cc2nc(NC3=NCN(Cc4cccnc4)CN3)nc(C)c2cc1C | > 9.13 | > 9.13
C[C@H](NC(=O)[C@@H]1CSC2c3ccccc3C(=O)N21)C(=O)NC1CCCCC1 (some centres undefined) | > 8.52 | > 8.52
O=C(O)CCCNC(=O)CCn1nnc2ccccc2c1=O | > 10.8 | > 10.8
COc1cccc(/C=C2\Oc3c(CN4CCN(C)CC4)c(O)cc(C)c3C2=O)c1 | > 8.37 | > 8.37
Cc1cccc(N2CCN(c3cc(C)nc4c(-c5ccccc5)c(C)nn34)CC2)n1 | > 8.28 | > 8.28
CC(C)Oc1cccc(C(=O)N2C(C)CCCC2C)c1 (centres undefined) | > 12 | > 12
Cc1nn2c(NCCN(C)C)cc(C(C)C)nc2c1-c1ccccc1 | > 9.78 | > 9.78
OCCNCCNCc1c(OCc2ccc(F)cc2)ccc2ccccc12 | > 8.96 | > 8.96
Cc1ccc(C(C)C)c(OCc2nnnn2-c2ccc(Br)cc2)c1 | 4.96 | > 8.52
Fc1ccc(COc2ccccc2CNCc2cccnc2)cc1 | > 10.2 | > 10.2
CCCN1CCc2c(sc3c2c(NCCc2ccccc2)nc2nnnn23)C1 | > 8.39 | > 8.39
O=c1nc2n(c3ccccc13)CC/C2=C\c1ccc(Cl)cc1 | > 10.7 | > 10.7
O=C(Nc1ccc(OCc2nnnn2-c2ccccc2)cc1)c1ccccc1 | > 8.89 | > 8.89
CCn1c2ccccc2c2cc(CNCCNC(=O)c3nonc3N)ccc21 | > 8.72 | > 8.72
NC(=O)c1c(NC(=O)NCc2ccncc2)sc2c1CCCC2 | > 9.99 | > 9.99
COc1cccc(/C=C2\Oc3cc(O)cc(C)c3C2=O)c1 | > 11.7 | > 11.7
O=C(Nc1nonc1-c1cccs1)c1sc2cccc(Cl)c2c1Cl | 3.26 | 4.63
Cc1nc(=O)c2c([nH]1)NC(=O)CC2c1ccccc1C (centres undefined) | > 12.3 | > 12.3
Oc1cc(OCCN2CCCCC2)ccc1-c1n[nH]cc1-c1ccccc1 | > 9.08 | > 9.08

Structure (SMILES) | IC50 [µM] | IC90 [µM]
CC(C)c1ccc(OCC(=O)NC2CCCCCC2)cc1 | > 11.4 | > 11.4
Cn1c(SCC(=O)Nc2cccc(C(=O)O)c2)nnc1-c1cnccn1 | > 8.91 | > 8.91
CN(C)c1ncnc2scc(-c3ccc(Cl)cc3)c12 | 4.05 | > 11.4
CC(C)c1nc(NCCCN2CCOCC2)c(C#N)c2c1CCCC2 | > 9.64 | > 9.64
O=c1c2c([nH]c3c(-c4ccccc4)c(Cc4ccccc4)nn13)CCCC2 | > 9.28 | > 9.28
O=C(COc1ccc(F)cc1)Nc1ccc2c(=O)c3cccc(Cl)c3oc2c1 | > 8.3 | > 8.3
COc1cccc(CNCCCSc2nnnn2-c2ccccc2)c1 | > 9.28 | > 9.28
Cc1ccc2c(Cl)c(C(=O)Nc3nonc3-c3ccccc3)sc2c1 | 7.41 | 8.14
COc1ccc(/C=C2\Oc3c(CN(C)C)c(O)cc(C)c3C2=O)cc1 | > 9.72 | > 9.72
Brc1ccc(OCc2ccccc2)c(CNCc2cccnc2)c1 | > 8.61 | > 8.61
O=C1CC(c2cccc(Cl)c2Cl)c2c([nH]c(-c3ccccc3)nc2=O)N1 (centres undefined) | > 8.54 | > 8.54
Fc1ccccc1COc1ccccc1CNCc1cccnc1 | > 10.2 | > 10.2
Nc1c(-c2ccccc2)[nH]c2ccccc12 | > 15.8 | > 15.8
CN(CCO)C(=O)Nc1sc2c(c1C(N)=O)CCC2 | > 11.6 | > 11.6
Cc1n[nH]c(Nc2cc(Cl)cc(Cl)c2)nc1=O | > 12.2 | > 12.2
Cc1c(C)n(Cc2ccccc2)c2ncn3nc(-c4cccnc4)nc3c12 | > 9.31 | > 9.31
COC(=O)c1c(NC(=O)C(=O)NCCN(C)C)sc2c1CCCC2 | > 9.34 | > 9.34
COc1ccc(NC(=O)Nc2cccc(C(F)(F)F)c2)cc1 | > 10.6 | > 10.6
Cc1n[nH]c(Nc2ccc(Oc3ccccc3)cc2)nc1=O | > 11.2 | > 11.2
CCCn1c(-c2ccccc2)nc2c(c(=O)c3ccccc3n2C)c1=O | 3.2 | 3.93
C=CCOc1cccc(C(=O)N(C)Cc2nc(-c3ccc(Cl)cc3)no2)c1 | > 8.6 | > 8.6
Cc1cccc(-c2nc3c(c(SCCN4CCCC4)n2)COC(C)(C)C3)c1 | > 8.6 | > 8.6
O=C1CCCC2=C1C(c1ccccc1)C=C1c3cc4c(cc3CCN12)OCCCO4 (centres undefined) | > 8.26 | > 8.26

Structure (SMILES) | IC50 [µM] | IC90 [µM]
C=C(C)COc1ccc(-c2onc(C)c2-c2ccc(OC)c(OC)c2)c(O)c1 | 0.64 | 7.35
O=C(Nc1ccc2c[nH]nc2c1)C1=NN(c2ccccc2)C(=O)CC1 | > 9.9 | > 9.9
Cc1ccc(O)c(-c2cc(C(=O)Nc3ccccc3C(F)(F)F)[nH]n2)c1 | > 9.13 | > 9.13
Cc1nc(=O)c2c([nH]1)NC(=O)CC2c1cc(F)ccc1F (centres undefined) | > 11.3 | > 11.3
CCC1Oc2ccccc2C(=O)N(Cc2ccccc2F)C1=O (centres undefined) | > 10.5 | > 10.5
Cn1c(=O)oc2ccc(S(=O)(=O)Nc3ccc4c(c3)CCCC4)cc21 | > 9.21 | > 9.21
COc1cc2[nH]c(C(=O)Nc3cccc(C(F)(F)F)c3)cc2c(OC)c1OC | 7.63 | 8.28
COc1ccc(CCn2c(C)nc3c(cnn3-c3ccccc3)c2=O)cc1 | 0.489 | 3.03
O=c1nc(Nc2cccc(C(F)(F)F)c2)[nH]nc1Cc1ccccc1 | 1.23 | > 9.53
CCOc1ccccc1C(=O)CN1C(=O)COc2ccccc2C1=O | > 9.72 | > 9.72
Clc1cc(Cl)cc(NCc2ccc3c(c2)OCO3)c1 | > 11.1 | > 11.1
O=c1[nH]c2ccc(NCc3cc(Cl)ccc3OCc3ccc(F)cc3)cc2[nH]1 | > 8.29 | > 8.29
O=C1CC(c2cccc3ccccc23)c2c([nH]c(-c3ccccc3)nc2=O)N1 (centres undefined) | > 8.98 | > 8.98
CCN(CC)c1ncnc2c1oc1nc(CC(C)C)c3c(c12)CCC3 | > 9.75 | > 9.75
CCN1CCN(c2nc(CC(C)C)c3c(c2C#N)CCCC3)CC1 | > 10.1 | > 10.1
Cn1c2ccccc2c(=O)c2c(=O)n(CCc3ccccc3)c(-c3ccco3)nc21 | 2.64 | 5.38
Cc1cccc(OCc2nnnn2-c2ccc(Br)cc2)c1 | > 9.56 | > 9.56
COCC(C)NC(=O)c1cccnc1-c1nc2ccccc2s1 (centres undefined) | > 10.1 | > 10.1
Cc1cc(O)cc2c1C(=O)/C(=C/c1ccc(F)cc1)O2 | > 12.2 | > 12.2
CC(C)(C)c1ccc(C(=O)Nc2nonc2-c2ccc(F)cc2)cc1 | > 9.72 | > 9.72
O=C(Nc1sc2ccccc2c(=O)c1-c1ccccc1)C1CCCCC1 | > 9.08 | > 9.08
Cc1ccc(-c2cc(C(=O)Nc3nnc(C(C)C)s3)[nH]n2)c(O)c1C | > 9.23 | > 9.23
COc1ccc(-n2nc(C)c3c2NC(=O)CC3c2ccc(O)cc2)cc1 (centres undefined) | > 9.45 | > 9.45

Structure (SMILES) | IC50 [µM] | IC90 [µM]
Cc1sc2ncn3nc(-c4ccc(=O)[nH]n4)nc3c2c1C | > 11.1 | > 11.1
COc1ccc(NC(=O)c2ccc(C)c(F)c2)cc1OCc1cccnc1 | 6.13 | > 10
Cn1c(CNC(=O)c2ccc(Cl)cc2)nc2ccccc21 | > 11 | > 11
CCOc1ccccc1C(=O)N(C)Cc1nc(-c2ccccc2)no1 | > 9.78 | > 9.78
CC(C)CNc1cc(N2CCN(C)CC2)c(N)c2c1C(=O)c1ccccc1C2=O | > 8.41 | > 8.41
CC/C=C1/CC(=O)N(c2ccc(OC(C)=O)cc2)C1=O | > 12.1 | > 12.1
COc1ccc(CCC(=O)NCc2cc(=O)n(C)c(=O)n2C)cc1 | > 9.96 | > 9.96
Clc1ccccc1COc1ccccc1CNCc1cccnc1 | > 9.74 | > 9.74
Cc1c(C)n(CC(C)C)c2ncnc(Nc3nccs3)c12 | > 10.9 | > 10.9
Cn1c(=O)n(C2CCCCC2)c(=O)c2ccccc21 | > 12.8 | > 12.8
O=c1c2ccccc2sc2nc(-c3ccccc3)n(Cc3ccccc3)c(=O)c12 | > 8.32 | > 8.32
N#Cc1c(SCc2ccc(F)cc2)nc(N2CCOCC2)c2c1CCCC2 | > 8.61 | > 8.61
Cc1cc2oc(C(=O)Nc3nonc3-c3ccc(F)cc3)c(C)c2cc1Cl | > 8.55 | > 8.55
CCn1c(SCC(=O)Nc2cc(Cl)ccc2O)nnc1-c1ccncc1 | > 8.46 | > 8.46
CC1(C)Cc2c(C#N)c(Nc3ccccc3)nc(NCCCO)c2CO1 | > 9.36 | > 9.36
Cc1c(C)n(Cc2ccccc2)c2ncn3nc(-c4ccccn4)nc3c12 | > 9.31 | > 9.31
COc1ccc(Cc2n[nH]c(Nc3cccc(Cl)c3)nc2=O)cc1 | 1.11 | 1.36
CC(C)Oc1ccccc1Nc1nc(=O)cn[nH]1 | > 13.4 | > 13.4
C[C@H](NC(=O)c1sc2ccccc2c1Cl)c1nnc2ccccn12 | > 9.25 | > 9.25
Cc1ccc(C(CCNCc2cccs2)c2ccco2)cc1 (centres undefined) | 1.96 | 2.72
COc1cc(NS(=O)(=O)c2ccc3ccccc3c2)c(OC)cc1Cl | 2.78 | 4.48
O=C1C(=O)N(CCN2CCCCC2)c2ccc(F)cc21 | > 11.9 | > 11.9
O=C1C(=O)N(Cc2ccccc2Cl)c2ccc(F)cc21 | > 11.4 | > 11.4
